Laboratory results: the supplement of paper PMC6206229
In brackets after ≈: the same amount, converted by molar mass.

Columns and labels:
[1] = test system: Staphylococcus aureus ATCC 29213 (MSSA); test: minimum inhibitory concentration; extreme values may be limits of the assay
How it was run: (§1)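 Methicillin-susceptible and methicillin-resistant Staphylococcus aureus were tested by broth microdilution in 96-well plates, following CLSI guidance with a resazurin redox read-out. Compounds were tested from 0 to 100 µM and incubated with bacteria for 24 h at 37°C, then 30 µl of 0.015% resazurin was added for 2–4 h, with positive controls on each plate. The minimum inhibitory concentration was the lowest concentration that stayed blue rather than turning pink. Runs were done at least twice in triplicate.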

[2] = test system: Staphylococcus aureus ATCC 700699 (MRSA); test: as above
How it was run: as §1

## CCn1ncc2c(NC3CCOCC3)c(CNC(=O)c3ccnn3C)c(C)nc21
[1]
  minimum inhibitory concentration: > 50 µM
[2]
  minimum inhibitory concentration: > 50 µM

## CC(C)(C)CN1C(=O)C(c2ccccc2)(c2ccccc2)N=C1N
[1]
  minimum inhibitory concentration: > 50 µM
[2]
  minimum inhibitory concentration: > 50 µM

## Cc1nn2c(=O)c3c([nH]c2c1-c1ccc(Cl)cc1)CCCC3
[1]
  minimum inhibitory concentration: > 50 µM
[2]
  minimum inhibitory concentration: > 50 µM

## N#Cc1nc(-c2ccccc2F)oc1NCCc1ccccc1
[1]
  minimum inhibitory concentration: > 50 µM
[2]
  minimum inhibitory concentration: > 50 µM

## CC1CCCCN1C(=O)NCCc1coc(-c2ccc(F)cc2)n1 (stereo not drawn)
[1]
  minimum inhibitory concentration: > 50 µM
[2]
  minimum inhibitory concentration: > 50 µM

## CCOc1ccc(OCC(=O)Nc2cc(C)cc(C)c2)cc1
[1]
  minimum inhibitory concentration: > 50 µM
[2]
  minimum inhibitory concentration: > 50 µM

## CCOc1ccc2cc(-c3nn(C(C)(C)C)c(N)c3C(N)=O)cnc2c1
[1]
  minimum inhibitory concentration: > 50 µM
[2]
  minimum inhibitory concentration: > 50 µM

## Cc1cc(C)cc(COc2ccc3c(C)c(CCC(=O)O)c(=O)oc3c2C)c1
[1]
  minimum inhibitory concentration: > 50 µM
[2]
  minimum inhibitory concentration: > 50 µM

## O=C(NCCN1CCCC1)c1cc(NCCCCN2CCC(F)(F)CC2)nc2ccc(Cl)cc12
[1]
  minimum inhibitory concentration: > 50 µM
[2]
  minimum inhibitory concentration: > 50 µM

## CCNC(=O)C(C)Nc1nc(-c2cccnc2)nc2sc(C)c(C)c12 (stereo not drawn)
[1]
  minimum inhibitory concentration: > 50 µM
[2]
  minimum inhibitory concentration: > 50 µM

## NCC(=O)N1CCn2c(nc(-c3ccccc3)c2Nc2ccc3c(c2)OCO3)C1
[1]
  minimum inhibitory concentration: > 50 µM
[2]
  minimum inhibitory concentration: > 50 µM

## Cc1ccc(S(=O)(=O)n2cc(-c3ccnc(N)c3)c3cc(Br)cnc32)cc1
[1]
  minimum inhibitory concentration: > 50 µM
[2]
  minimum inhibitory concentration: > 50 µM

## Nc1nccc2ccc(Oc3ccncc3)cc12
[1]
  minimum inhibitory concentration: 50 µM (≈ 11.9 µg/mL)
[2]
  minimum inhibitory concentration: 50 µM (≈ 11.9 µg/mL)

## O=C(NCc1ccoc1)N1CCN(Cc2ccc3c(c2)OCO3)CC1
[1]
  minimum inhibitory concentration: > 50 µM
[2]
  minimum inhibitory concentration: > 50 µM

## O=C(NCCc1ccn(-c2ccccc2)n1)C1CCCCC1
[1]
  minimum inhibitory concentration: > 50 µM
[2]
  minimum inhibitory concentration: > 50 µM

## COc1cccc(-n2nnnc2S(=O)(=O)Cc2ccccc2)c1
[1]
  minimum inhibitory concentration: 50 µM (≈ 16.5 µg/mL)
[2]
  minimum inhibitory concentration: 50 µM (≈ 16.5 µg/mL)

## CCCCN(CCCC)c1c(C#N)cc(S(=O)(=O)Nc2ccccc2)cc1C#N
[1]
  minimum inhibitory concentration: > 50 µM
[2]
  minimum inhibitory concentration: > 50 µM

## CC1CCCN(C(=O)C(C)Nc2cc(Cl)ccc2N2CCOCC2)C1 (stereo not drawn)
[1]
  minimum inhibitory concentration: > 50 µM
[2]
  minimum inhibitory concentration: > 50 µM

## CN1CCN(c2nccc3nc(-c4ccc(F)c(F)c4)[nH]c23)CC1
[1]
  minimum inhibitory concentration: > 50 µM
[2]
  minimum inhibitory concentration: > 50 µM

## NCC(c1cccs1)S(=O)(=O)c1ccccc1 (stereo not drawn)
[1]
  minimum inhibitory concentration: > 50 µM
[2]
  minimum inhibitory concentration: > 50 µM

## O=C(Nc1cccc(Cl)c1)c1cnc(N2CCN(c3ccncc3)CC2)c(Cl)c1
[1]
  minimum inhibitory concentration: > 50 µM
[2]
  minimum inhibitory concentration: > 50 µM

## c1ccc(Oc2ccc(-c3cc(CN4CCOCC4)[nH]n3)cc2)cc1
[1]
  minimum inhibitory concentration: > 50 µM
[2]
  minimum inhibitory concentration: > 50 µM

## Cc1cc2nc(NC(=O)C(C)(C)C)nc(Cl)c2n1Cc1ccc(Cl)cc1
[1]
  minimum inhibitory concentration: > 50 µM
[2]
  minimum inhibitory concentration: > 50 µM

## CCc1cc(=O)n(C)c(SC(C)C(=O)Nc2ccc(F)cc2)n1 (stereo not drawn)
[1]
  minimum inhibitory concentration: > 50 µM
[2]
  minimum inhibitory concentration: > 50 µM

## Cc1cc(NCC(C)C)c2[nH]nc(-c3ccccc3)c2n1
[1]
  minimum inhibitory concentration: > 50 µM
[2]
  minimum inhibitory concentration: > 50 µM

## CCc1ccc([C@@H]2C[C@H](C(F)(F)F)n3ncc(C(=O)NCc4ccc(OC)cc4)c3N2)cc1
[1]
  minimum inhibitory concentration: > 50 µM
[2]
  minimum inhibitory concentration: > 50 µM

## COC(=O)c1cccc2oc(-c3cccc(OC)c3NC(=O)c3cc(-c4ccccc4)on3)nc12
[1]
  minimum inhibitory concentration: > 50 µM
[2]
  minimum inhibitory concentration: > 50 µM

## CNC(=O)CNc1nc(-c2ccccn2)nc2scc(-c3ccccc3)c12
[1]
  minimum inhibitory concentration: > 50 µM
[2]
  minimum inhibitory concentration: > 50 µM

## Nc1ccc2ncnc(Nc3ccc(OCc4cccc(F)c4)c(Cl)c3)c2c1
[1]
  minimum inhibitory concentration: > 50 µM
[2]
  minimum inhibitory concentration: > 50 µM
